In patent publication US7419954B2, “Staphylococcus peptides for bacterial interference” (priority 1998, dated 2008):
pEC50, pIC50: −log10 of the molar value. Where a SMILES comes first, the peptide text is derived from it. Bridges are numbered along the chain shown (N, C = ends).

Assays:
[1] = target: AgrC receptor of group I S. aureus (Staphylococcus aureus); experiment: cell-based or functional assay
[2] = tested on: agr-I bacteria (RN6734) carrying agrp3-lux or blaZp-lux; experiment: Murine subcutaneous abscess model with in vivo bioluminescence imaging; parameters: species or system SKH-1 mice; conditions: mice, single dose 10 μg co-injected with agr-I bacteria
Experimental: Murine subcutaneous abscess model. Groups (n=3 per variable examined) of hairless, euthymic SKH-1 (ISL) mice (Charles River) were used in the murine subcutaneous abscess model (Bunce et al. (1992) Infect. Immun. 60, 2636-40). In this model, staphylococci are injected subcutaneously with cytodex beads, and an abscess develops at the site of injection 2-3 days later, then sloughs and drains. The organisms grow rapidly initially, after which the population levels out and remains constant thereafter. Polymorphonuclear leuykocytes (PMNs) are attracted to the developing lesion by bacterial products and by pro-inflammatory cytokines, reaching maximum numbers by about 6 hours.
Bacteria were thawed, diluted to appropriate cell density, mixed with sterile cytodex beads (Sigma) and injected subcutaneously in a volume of 0.1 ml in the flank region. […] Mice were fed a standard diet ad libitum and monitored daily for signs of distress. Colony forming units (CFU) per abscess were determined by plating serial dilutions of excised lesions homogenized in PBS plus 0.5% Triton X-100.
Measurement of bioluminescence in vivo. […] For the graphs, the signal collected on a portion of the CCD array corresponding to the area of injected bacteria was determined in photons/sec/cm^2/sr, referred to as relative light units (RLU), and plotted vs. time after initiation of infection.

[3] = tested on: strain RN7206 carrying the agrCA-II agrp3-blaZ reporter fusion; experiment: Determination of AIP-II half-life: incubation in PBS or rabbit serum, then dose-response activation of β-lactamase induction; assay type: cell-based, S. aureus; conditions: normal rabbit serum
Experimental: (§1) Determination of AIP-II half-life. To approximate the active lifetime of AIP, a synthetic version of AIP-IL (Lyon et al. (2002) Biochemistry 41, 10095-104) was incubated in PBS or rabbit serum at 37° C. for 4 hours. The sample was diluted and a dose-response assay for activation of β-lactamase induction of strain RN7206 carrying the agrCA-II agrp3-blaZ reporter fusion was performed as previously described (Lyon et al. (2002) supra; Wright III et al. (2004) Proc. Natl. Acad. Sci., USA).

[4] = as above; assay type: cell-based, S. aureus; conditions: rabbit, rabbit serum; from EC50 shift PBS vs serum; given as in vivo
Experimental: as §1

[5] = tested on: agr response in group I (RN6390B) S. aureus; experiment: agr P3-blaZ β-lactamase reporter assay, inhibition of the agr response; assay type: cell-based; conditions: for pIC50 / IC50 Inhibition, S. aureus Group I: group I (RN6390B), midexponential phase, 80 minutes
Experimental: (§2) The synthetic AgrD peptides shown in Table 1 include the following: Agr D1 Thiolactone. […] (SEQ ID NO: 9): Agr D2 Thiolactone, […] (SEQ lID NO: 1): Agr D2 Linear Thioester, […] (SEQ ID NO: 1): Agr D2 Linear Free Acid […] (SEQ ID NO: 1); Agr D2 Lactone, […] (SEQ ID NO: 1); and Agr D2 Lactam, GVNAXSSLF (SEQ ID NO: 1).
(§3) Biological activity of synthetic AgrD peptides. Biological assays were performed using groups I (RN6390B), II (SA502A) and III (RN8463) S. aureus strains (Ji et al. (1997) supra), each containing an agr P3-blaZ fusion plasmid (Novick et al. (1995) supra). Cells were grown in CYGP medium at 37° C. to either early exponential phase for agr activation studies, or midexponential phase for agr inhibition studies. To the cultured cells were then added one of the following: buffer solution (negative control), the appropriate cell supernatant containing the natural AgrD peptide as prepared as in (Ji, G., et al., 1995) (positive control) or the synthetic peptide solution in 20 mM tris.HCl buffer at pH 6.0.

[6] = target: agr response in group II (SA502A) S. aureus; experiment: as above; assay type: cell-based; conditions: for inhibition of self (own group): own S. aureus group (group II)
Experimental: as §2, §3

[7] = tested on: agr response in group III (RN8463) S. aureus; experiment: as above; assay type: cell-based
Experimental: as §2, §3

[8] = tested on: agr response in groups I, II and III S. aureus strains; experiment: agr P3-blaZ β-lactamase reporter assay, activation/inhibition in the three S. aureus strains; assay type: cell-based
Experimental: as §2, §3

[9] = target: agr response in group I (RN6390B) S. aureus; experiment: agr P3-blaZ β-lactamase reporter assay, activation of the agr response; assay type: cell-based; conditions: early exponential phase, 55 minutes
Experimental: as §2, §3

[10] = target: agr response in group II (SA502A) S. aureus; experiment: as above; assay type: cell-based; conditions: early exponential phase, 55 minutes
Experimental: as §2, §3

[11] = target: agr response in group III (RN8463) S. aureus; experiment: as above; assay type: cell-based; conditions: early exponential phase, 55 minutes
Experimental: as §2, §3

[12] = target: AgrC receptor of group III S. aureus (Staphylococcus aureus); experiment: cell-based or functional assay
[13] = target: AgrC receptor of group II S. aureus (Staphylococcus aureus); experiment: cell-based or functional assay
[14] = group II (SA502A), midexponential phase, 80 minutes
[15] = group III (RN8463), midexponential phase, 80 minutes

Agr D2 Lactam (peptide)
IC50 Inhibition (nM), agr P3-blaZ beta-lactamase reporter [1]: 0.21 nM

CC(C)C[C@@H]1NC(=O)[C@H](CO)NC(=O)[C@H](CO)NC(=O)[C@@H](NC(=O)[C@H](C)NC(=O)[C@H](CC(N)=O)NC(=O)[C@@H](NC(=O)CN)C(C)C)CSC(=O)[C@H](Cc2ccccc2)NC1=O [Agr D2 Thiololactone, GVNACSSLF (SEQ lID NO: 1)] (H-GVNACSSLF; thioester 5-C)
effective biological lifetime of the peptide in vivo [2]: about 3 hours | in vitro lifetime [3]: ~4 h | half-life [4]: < 4 h

GVNASSSLF (SEQ ID NO: 1) [Agr D2 Lactone]
inhibition of the agr response in group I S. aureus strains [5]: able to inhibit | pIC50 [5]: 8.10 | IC50 Inhibition, S. aureus Group II [6, 14]: No Inhibition | inhibition of self (own group) [6]: do not inhibit self | inhibition of the agr response in group III S. aureus strains [7]: able to inhibit | activation of the agr response in any of the three S. aureus strains [8]: unable to activate | ED50 Activation, S. aureus Group I [9]: No Activation | ED50 Activation, S. aureus Group II [10]: No Activation | ED50 Activation, S. aureus Group III [11]: No Activation

GVNAASSLF [Agr D2 Linear Thioester, GVNAASSLF (SEQ ID NO: 1)]
IC50 Inhibition, S. aureus Group I [5]: No Inhibition | IC50 Inhibition, S. aureus Group II [6, 14]: No Inhibition | IC50 Inhibition, S. aureus Group III [7, 15]: No Inhibition | activation/inhibition of the agr response ([8]; added to cultured cells at μM concentrations): unable to either activate or inhibit | ED50 Activation, S. aureus Group I [9]: No Activation | ED50 Activation, S. aureus Group II [10]: No Activation | ED50 Activation, S. aureus Group III [11]: No Activation

Agr D1 Thiolactone (peptide)
IC50 Inhibition (nM), agr P3-blaZ beta-lactamase reporter [12]: 3.2 nM | IC50 Inhibition (nM), agr P3-blaZ beta-lactamase reporter [13]: 2.9 nM | ED50 Activation (nM), agr P3-blaZ beta-lactamase reporter [1]: 10.2 nM

GVNASSSLF [Agr D2 Linear Free Acid, GVNASSSLF (SEQ ID NO: 1)]
IC50 Inhibition, S. aureus Group I [5]: No Inhibition | IC50 Inhibition, S. aureus Group II [6, 14]: No Inhibition | IC50 Inhibition, S. aureus Group III [7, 15]: No Inhibition | ED50 Activation, S. aureus Group I [9]: No Activation | ED50 Activation, S. aureus Group II [10]: No Activation | ED50 Activation, S. aureus Group III [11]: No Activation

GVNAXSSLF (SEQ ID NO: 1) [Agr D2 Lactam]
inhibition of the agr response in group I S. aureus strains [5]: able to inhibit | pIC50 [5]: 9.68 | IC50 Inhibition, S. aureus Group II [6, 14]: No Inhibition | inhibition of self (own group) [6]: do not inhibit self | inhibition of the agr response in group III S. aureus strains [7]: able to inhibit | activation of the agr response in any of the three S. aureus strains [8]: unable to activate | ED50 Activation, S. aureus Group I [9]: No Activation | ED50 Activation, S. aureus Group II [10]: No Activation | ED50 Activation, S. aureus Group III [11]: No Activation

Agr D2 Lactone (peptide)
IC50 Inhibition (nM), agr P3-blaZ beta-lactamase reporter [1]: 7.9 nM

YSTCDFIM [Agr D1 Thiolactone, YSTCDFIM (SEQ ID NO: 9)]
IC50 Inhibition, S. aureus Group I [5]: No Inhibition | pIC50 [6, 14]: 8.54 | pIC50 [7, 15]: 8.49 | pEC50 ([9]; read-out: ED50 Activation, S. aureus Group I): 7.99 | ED50 Activation, S. aureus Group II [10]: No Activation | ED50 Activation, S. aureus Group III [11]: No Activation

Agr D2 Thiolactone (peptide)
IC50 Inhibition (nM), agr P3-blaZ beta-lactamase reporter [12]: 3.1 nM | ED50 Activation (nM), agr P3-blaZ beta-lactamase reporter [13]: 3.6 nM | IC50 Inhibition (nM), agr P3-blaZ beta-lactamase reporter [1]: 3.4 nM
